Measurements taken from PubChem BioAssay AID1117337 (Cheminformatics & Chemogenomics Research Group (CCRG), …, 2015).
Where “and” joins values, the source holds several entries; their conditions need not be identical. Equal entries are not always repeated. Calls of active or inactive are those of the source. No rule for the calls is given here.

These compounds were tested on ADSC/ECFC co-culture, VEGF-stimulated, CD31 tube area (assay: ADSC/ECFC co-culture angiogenesis inhibition – imaging, VEGF stimulation, CD31 staining, tube area, IC50, dose response (AID 1117337)).
`CC(=O)Oc1ccc(C2(c3ccc(OC(C)=O)cc3)Oc3ccccc3NC2=O)cc1` gave an IC50 of 2.27 µM.
In the case of `Clc1ccc(CO/N=C(\Cn2ccnc2)c2ccc(Cl)cc2Cl)c(Cl)c1`, the IC50 is reported as > 10 µM (inactive).
For `Cc1cccc(C)c1NC(=O)CN1CCN(CCCC(c2ccc(F)cc2)c2ccc(F)cc2)CC1`, the IC50 was > 10 µM (inactive).
For `O=C1OC(OC(=O)c2cccnc2Nc2cccc(C(F)(F)F)c2)c2ccccc21` (centres undefined), the IC50 was > 10 µM (inactive).
In the case of `CCCCCCCCCCCCCCCC(=O)OCC=C(C)C=CC=C(C)C=CC1=C(C)CCCC1(C)C`, the IC50 is reported as > 10 µM (inactive).
For `CC(C)=CCC/C(C)=C/CC/C(C)=C/C(=O)OCC(=O)[C@@]1(O)CC[C@H]2[C@@H]3CCC4=CC(=O)C=C[C@]4(C)[C@H]3[C@@H](O)C[C@@]21C`, the IC50 was 3.34 µM.
`COc1ccccc1OCCNCC(O)COc1cccc2[nH]c3ccccc3c12` (centres undefined) was tested, and the IC50 was > 10 µM (inactive).
In the case of `CCCCCCCCCCCCCC[N+](C)(C)Cc1ccccc1`, the IC50 is reported as 3.01 µM.
`Cc1c(C)c2c(c(C)c1O)CC[C@@](C)(CCC[C@H](C)CCC[C@H](C)CCCC(C)C)O2` was tested, and the IC50 was > 10 µM (inactive).
Work on `CCN(CC)CCOc1ccc(C(O)(Cc2ccc(Cl)cc2)c2ccc(C)cc2)cc1` (centres undefined) yielded an IC50 of 3.21 µM.
In the case of `Oc1ccc(O)cc1`, the IC50 is reported as > 10 µM (inactive).
In the case of `Oc1cc(Cl)ccc1Oc1ccc(Cl)cc1Cl`, the IC50 is reported as > 10 µM (inactive).
Compound `CO[C@@]12[C@H](COC(N)=O)C3=C(C(=O)C(C)=C(N)C3=O)N1C[C@@H]1N[C@@H]12` has an IC50 of 0.102 µM.
With `C[C@H]1O[C@@H](O[C@H]2CC[C@@]3(C)[C@H](CC[C@@H]4[C@@H]3C[C@@H](O)[C@]3(C)[C@@H](C5=CC(=O)OC5)CC[C@]43O)C2)C[C@H](O)[C@@H]1O[C@H]1C[C@H](O)[C@H](O[C@H]2C[C@H](O)[C@H](O[C@@H]3O[C@H](CO)[C@@H](O)[C@H](O)[C@H]3O)[C@@H](C)O2)[C@@H](C)O1` the IC50 was 0.0614 µM.
For `CCN(CC)C(=O)c1cccnc1`, the IC50 was > 10 µM (inactive).
Work on `CC(=O)[O][Hg][c]1ccccc1` yielded an IC50 of 0.53 µM.
Work on `C=C(C)[C@H]1Cc2c(ccc3c2O[C@@H]2COc4cc(OC)c(OC)cc4[C@@H]2C3=O)O1` yielded an IC50 of 0.0257 µM.
For `NC(=O)C1(N2CCCCC2)CCN(CCCN2c3ccccc3CCc3ccc(Cl)cc32)CC1`, the IC50 was 3.4 µM.
`O=C(O)CCC(=O)OC[C@@H](NC(=O)C(Cl)Cl)[C@H](O)c1ccc([N+](=O)[O-])cc1` was tested, and the IC50 was > 10 µM (inactive).
In the case of `c1ccc2c(c1)Sc1ccccc1N2CC1CN2CCC1CC2` (centres undefined), the IC50 is reported as 9.44 µM (inactive).
For `CCCCCCCCCCCCCCCCNc1ccc(C(=O)O)cc1`, the IC50 was 0.367 µM.
With `CCCCCCCC/C=C\CCCCCCCCN` the IC50 was > 10 µM (inactive).
With `O[C@@H](c1cc(C(F)(F)F)nc2c(C(F)(F)F)cccc12)[C@H]1CCCCN1` the IC50 was > 10 µM (inactive).
With `CCCSS/C(CCO)=C(\C)N(C=O)Cc1cnc(C)nc1N` the IC50 was > 10 µM (inactive).
Work on `COc1ccc(-c2nc3ccc(C4=NNC(=O)CC4C)cc3[nH]2)cc1` (centres undefined) yielded an IC50 of 2.89 µM.
With `CCOC(=O)[C@H](CCc1ccccc1)N[C@@H](C)C(=O)N1Cc2cc(OC)c(OC)cc2C[C@H]1C(=O)O` the IC50 was > 10 µM (inactive).
With `CCOC(=O)C1=C[C@]2(CC)CCCN3CCc4c(n1c1ccccc41)[C@@H]32` the IC50 was > 10 µM (inactive).
With `COCC(=O)O[C@]1(CCN(C)CCCc2nc3ccccc3[nH]2)CCc2cc(F)ccc2[C@@H]1C(C)C` the IC50 was > 10 µM (inactive).
In the case of `CCCSc1ccc2nc(NC(=O)OC)[nH]c2c1`, the IC50 is reported as 0.355 µM.
`CCCCCCCCCCCCCCCC[N+](C)(C)CC` was tested, and the IC50 was 1.14 µM.
For `NC1=NCC2c3ccccc3Cc3ccccc3N12` (centres undefined), the IC50 was > 10 µM (inactive).
For `O=C(O)c1ccc2[nH]cc(CCCCN3CC=C(c4ccccc4)CC3)c2c1`, the IC50 was > 10 µM (inactive).
Work on `Nc1nc(=S)c2[nH]cnc2[nH]1` yielded an IC50 of 0.622 µM.
For `O=C(CBr)Nc1ccc(Cl)cc1C(=O)c1ccccc1F`, the IC50 was > 10 µM (inactive).
`COC(=O)Nc1nc2ccc(Sc3ccccc3)cc2[nH]1` was tested, and the IC50 was 0.207 µM.
Compound `CC1=C(C(=O)OC(C)C)C(c2cccc([N+](=O)[O-])c2)C(C(=O)OC2CN(C(c3ccccc3)c3ccccc3)C2)=C(N)N1` (centres undefined) has an IC50 of 3.58 µM.
With `C/C=C(/C(=C/C)c1ccc(OC(C)=O)cc1)c1ccc(OC(C)=O)cc1` the IC50 was > 10 µM (inactive).
Work on `COc1cc([C@@H]2c3cc4c(cc3[C@@H](O[C@@H]3O[C@@H]5CO[C@@H](C)O[C@@H]5[C@H](O)[C@@H]3O)[C@H]3COC(=O)[C@H]23)OCO4)cc(OC)c1O` yielded an IC50 of 0.109 µM.
`CN1CC[C@H](c2c(O)cc(O)c3c(=O)cc(-c4ccccc4Cl)oc23)[C@H](O)C1` showed an IC50 of 0.114 µM.
With `CC[C@]1(O)C[C@@H]2CN(CCc3c([nH]c4ccccc34)[C@@](C(=O)OC)(c3cc4c(cc3OC)N(C)[C@H]3[C@@](O)(C(=O)OC)[C@H](OC(C)=O)[C@]5(CC)C=CCN6CC[C@]43[C@@H]65)C2)C1` the IC50 was 0.0026 µM and 0.0023 µM.
In the case of `Nc1cc(C(F)(F)F)ccc1S`, the IC50 is reported as > 10 µM (inactive).
For `COc1ccccc1N1CCN(CC(O)COc2cc(OC)c(OC)c(OC)c2)CC1` (centres undefined), the IC50 was > 10 µM (inactive).
For `O=C(Nc1ccc(Br)cc1)c1cc(Br)c(Br)s1`, the IC50 was > 10 µM (inactive).
In the case of `O=C(N/N=C/c1ccccc1O)c1ccncc1`, the IC50 is reported as > 10 µM (inactive).
`CC(C)(C)C(=O)OCOP(=O)(COCCn1cnc2c(N)ncnc21)OCOC(=O)C(C)(C)C` gave an IC50 of 0.391 µM.
In the case of `COC(=O)Nc1nc2ccc(C(=O)C3CC3)cc2[nH]1`, the IC50 is reported as 1.19 µM.
For `C[C@@H](NCCCc1cccc(C(F)(F)F)c1)c1cccc2ccccc12`, the IC50 was > 10 µM (inactive).
With `Cc1cc(N)c2ccccc2[n+]1CCCCCCCCCC[n+]1c(C)cc(N)c2ccccc21` the IC50 was > 10 µM (inactive).
`Cc1c(O)cccc1C(=O)N[C@@H](CSc1ccccc1)[C@H](O)CN1C[C@H]2CCCC[C@H]2C[C@H]1C(=O)NC(C)(C)C` was tested, and the IC50 was > 10 µM (inactive).
In the case of `C#C[C@]1(OC(C)=O)CC[C@H]2[C@@H]3CCC4=C/C(=N/O)CC[C@@H]4[C@H]3CC[C@@]21CC`, the IC50 is reported as > 10 µM (inactive).
For `CCCCCCCCCCCCCCCC[N+](C)(C)CCN(Cc1ccc(OC)cc1)c1ncccn1`, the IC50 was 3.07 µM.
`Cc1[nH]cnc1C[C@H]1CCc2c(C)c3ccccc3n2C1=O` was tested, and the IC50 was > 10 µM (inactive).
With `O=C1C(=O)c2ccccc2C(O)=C1C1CCC(c2ccc(Cl)cc2)CC1` (centres undefined) the IC50 was 5.18 µM (inactive).
`COc1c(C)c2c(c(O)c1C/C=C(\C)CCC(=O)OCCN1CCOCC1)C(=O)OC2` was tested, and the IC50 was 1.26 µM.
`CCCCC[C@@H](O)CC[C@H]1[C@@H]2Cc3cccc(OCC(=O)O)c3C[C@@H]2C[C@@H]1O` was tested, and the IC50 was > 10 µM (inactive).
In the case of `Nc1c2ccccc2nc2ccccc12`, the IC50 is reported as > 10 µM (inactive).
With `CC(C)=CCOc1ccc(/C=C/C(=O)c2ccc(OCC=C(C)C)cc2OCC(=O)O)cc1` the IC50 was > 10 µM (inactive).
With `OCCN1CCN(CCCN2c3ccccc3Sc3ccc(C(F)(F)F)cc32)CC1` the IC50 was > 10 µM (inactive).
For `ClC1=C(Cl)C2(Cl)C(CBr)CC1(Cl)C2(Cl)Cl` (centres undefined), the IC50 was > 10 µM (inactive).
For `C/C(=N\O)[C@@H](C)NCC(C)(C)CN[C@H](C)/C(C)=N/O`, the IC50 was > 10 µM (inactive).
For `OCCN1CCN(CCCN2c3ccccc3Sc3ccc(Cl)cc32)CC1`, the IC50 was > 10 µM (inactive).
With `O=C(c1ccc(F)cc1)C1CCN(CCn2c(=O)[nH]c3ccccc3c2=O)CC1` the IC50 was > 10 µM (inactive).
In the case of `COc1cc(C=C2CCC/C(=C\c3ccc(O)c(OC)c3)C2=O)ccc1O`, the IC50 is reported as > 10 µM (inactive).
With `CCN(CC)CCNc1ccc(CO)c2sc3ccccc3c(=O)c12` the IC50 was 8.35 µM (inactive).
`O=C(Nc1ccc(Br)cc1)c1cc(Br)cc(Br)c1O` showed an IC50 of 1.81 µM.
Compound `NC(=NCCCCCCN=C(N)/N=C(\N)Nc1ccc(Cl)cc1)/N=C(\N)Nc1ccc(Cl)cc1` has an IC50 of 1.35 µM.
Work on `CN(C)c1ccc(C(=C2C=CC(=[N+](C)C)C=C2)c2ccc(N(C)C)cc2)cc1` yielded an IC50 of 0.186 µM.
With `CC(C)(C)C1CCC(CC2=C(O)c3ccccc3C(=O)C2=O)CC1` (centres undefined) the IC50 was 1.96 µM.
`Clc1ccc(Nc2nnc(Cc3ccncc3)c3ccccc23)cc1` gave an IC50 of 0.111 µM.
In the case of `O=C(O)C1CCC1`, the IC50 is reported as > 10 µM (inactive).
For `CCN(CC)C(=O)/C(C#N)=C/c1cc(O)c(O)c([N+](=O)[O-])c1`, the IC50 was > 10 µM (inactive).
`CCCCN1CCCC1C(=O)Nc1c(C)cc(C)cc1C` (centres undefined) was tested, and the IC50 was > 10 µM (inactive).
With `CCOC(=O)C1=C(C)NC(C)=C(C(=O)OCC)C1c1ccccc1/C=C/C(=O)OC(C)(C)C` the IC50 was > 10 µM (inactive).
With `CCCCC(CC)CN=C(N)NC(N)=NCCCCCCN=C(N)NC(N)=NCC(CC)CCCC` (centres undefined) the IC50 was 0.408 µM.
Compound `OC[C@H]1O[C@@H](n2cnc3c(=S)nc[nH]c32)[C@H](O)[C@@H]1O` has an IC50 of 1.42 µM.
`CCCCc1ccc2nc(NC(=O)OC)[nH]c2c1` was tested, and the IC50 was 0.053 µM.
Work on `CC(C)OC(=O)OCOP(=O)(CO[C@H](C)Cn1cnc2c(N)ncnc21)OCOC(=O)OC(C)C` yielded an IC50 of 3.84 µM.
`CCCCCCCCCCCCCCCCCCOP(=O)([O-])OC1CC[N+](C)(C)CC1` was tested, and the IC50 was > 10 µM (inactive).
With `CCCCCCCCCCCCCCNCCO` the IC50 was > 10 µM (inactive).
With `O=[N+]([O-])C(Br)(CO)CO` the IC50 was > 10 µM (inactive).
In the case of `CN(C)CCOC1=Cc2ccccc2Sc2ccc(Cl)cc21`, the IC50 is reported as > 10 µM (inactive).
Compound `CC[C@]1(O)C[C@H]2CN(CCc3c([nH]c4ccccc34)[C@@](C(=O)OC)(c3cc4c(cc3OC)N(C=O)[C@H]3[C@@](O)(C(=O)OC)[C@H](OC(C)=O)[C@]5(CC)C=CCN6CC[C@]43[C@@H]65)C2)C1` has an IC50 of 0.0065 µM.
For `O=C(NOCC1CC1)c1ccc(F)c(F)c1Nc1ccc(I)cc1Cl`, the IC50 was 0.368 µM.
`O=c1[nH]c(=O)n([C@H]2C[C@H](O)[C@@H](CO)O2)cc1I` was tested, and the IC50 was 0.681 µM.
With `CCOC(=O)C=C(C)C=CC[C@@H](C)CCCC(C)C` the IC50 was > 10 µM (inactive).
With `C/C(=C(/OCCOc1ccc(Cl)cc1)c1ccc(Cl)cc1Cl)n1ccnc1` the IC50 was 5.84 µM (inactive).
Work on `CCC(C)n1ncn(-c2ccc(N3CCN(c4ccc(OC[C@H]5CO[C@](Cn6cncn6)(c6ccc(Cl)cc6Cl)O5)cc4)CC3)cc2)c1=O` (some centres undefined) yielded an IC50 of 1.55 µM.
For `COc1ccc([C@@H]2Sc3ccccc3NC(=O)[C@@H]2O)cc1`, the IC50 was > 10 µM (inactive).
`Nc1nc(F)nc2c1ncn2[C@@H]1O[C@H](CO)[C@@H](O)[C@@H]1O` was tested, and the IC50 was 8.45 µM (inactive).
Work on `Clc1ccccc1C(c1ccccc1)(c1ccccc1)n1ccnc1` yielded an IC50 of 3.04 µM.
With `O=C(CCCN1CCC(O)(c2cccc(C(F)(F)F)c2)CC1)c1ccc(F)cc1` the IC50 was > 10 µM (inactive).
`Oc1ccc(/C=C/c2cc(O)cc(O)c2)cc1` was tested, and the IC50 was > 10 µM (inactive).
With `CCCCCCCCCCCC(=O)[O][Sn]([CH2]CCC)([CH2]CCC)[O]C(=O)CCCCCCCCCCC` the IC50 was 2.01 µM.
With `Cc1cc(C2CCCCC2)n(O)c(=O)c1` the IC50 was > 10 µM (inactive).
